Laboratory results taken from patent US8690865B2, “Methods and devices for thermal treatment” (Georgia Tech Research Corporation, priority 2004, dated 2014).
Like-named read-outs stand apart in the source and are kept apart here.

Columns and labels:
[1] = in vivo transport into and across skin treated with thermal treatment device; parameters: species or system Sprague-Dawley hairless rat; conditions: hairless rat skin treated with thermal treatment device; brief exposure to dye or over an hour to calcein solution
Method: (§1) The in vivo skin model is a Sprague-Dawley hairless rat, a commonly used model for human skin permeability due to the similarity of hairless rat and human skin. For initial studies, rats ARE anesthetized by intraperitoneal injection of urethane (1000 mg/kg) and treated with a thermal treatment device of the present invention. The skin is exposed either briefly to a blue tissue marking dye to visualize the size and location of pores, or exposed for over an hour to a calcein solution to image the transdermal transport process. After sacrificing the animal, skin specimens are excised and prepared for histological examination by cryostat sectioning.

[2] = skin permeability measurement in Franz diffusion cell after microheater microablation
Method: Microheater components are tested for use in ablation of stratum corneum and increasing barrier permeability and increased drug transport by assessing transport across cadaver skin by three different molecules. Calcein is a low molecular weight (623 Da) fluorescent molecule used to measure skin permeability by spectrofluorimetric assay and image transport pathways in skin by confocal microscopy. […] Insulin is a polypeptide (6 kDa) that will be used for comparison with in vivo studies involving insulin delivery to diabetic rats. To perform skin permeability measurements, cadaver epidermis is placed in a Franz diffusion cell at 37° C. and an array of microheaters is then positioned on the stratum corneum side and thermally activated to cause microablation. […] Every hour, or more frequently, 1 ml of receptor solution is sampled, and replaced with fresh saline, and fluorescence intensity is measured using calibrated spectrofluorometry and analyzed to determine rates of transdermal delivery.

[3] = insulin delivery through micropores in streptozotocin-diabetic rats; format: in vivo, rat; conditions: treated skin area exposed to Humulin-R insulin solution
Method: as §1
For insulin delivery studies, rats are made diabetic by intravenous injection with 100 mg/kg streptozotocin, which produces diabetes the next day due to destruction of pancreatic islet cells. Under urethane anesthesia, skin is treated with a thermal treatment device of the present invention and the treated skin area is exposed to an Humulin-R insulin solution. Blood samples are collected by tail veil laceration over time to measure glucose concentration using a FreeStyle glucose monitor to determine pharmacodynamic response and to measure insulin concentration by radioimmunoassay to determine pharmacokinetic response, after which the animal is sacrificed.

Compound: O=C(O)CN(CC(=O)O)Cc1cc2c(cc1O)Oc1cc(O)c(CN(CC(=O)O)CC(=O)O)cc1C21OC(=O)c2ccccc21 [Calcein]
- transport into micropores and across the epidermis (histological tissue sections) [1]: show transport of the molecules into the micropores and with time, transport across the epidermis
- transport across cadaver skin (measured in receptor solution) [2]: later measured in the receptor solution

Compound: Insulin
- blood glucose (pharmacodynamic response) [3]: response to glucose control
- insulin concentration in blood (radioimmunoassay, pharmacokinetic response) [3]: insulin in the blood
- transport across cadaver skin (measured in receptor solution) ([2]; cadaver epidermis, Franz diffusion cell at 37° C., after microablation by microheater array, added individually to donor compartment): later measured in the receptor solution
